Results as given in ChEMBL document CHEMBL1201862, “PubChem BioAssay data set” (2004).
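Exposure lasted 48 hours, with cells grown in 96-well plates and compounds tested at five concentrations. The concentration for 50% growth inhibition is given as GI50.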 Active and inactive are the calls of the source. Cut-off read from the data, not from the text of the source: active = GI50 up to about 1.1 µM and inactive = higher.

What was measured:
Assay in all cases: inhibition of tumour cell growth, NCI panel, 48 h
[1] = tested on: BT-549
[2] = tested on: DU-145
[3] = tested on: MDA-MB-435
[4] = tested on: MDA-N
[5] = tested on: PC-3
[6] = tested on: T47D
[7] = tested on: LXFL 529

Measured: GI50

CCCCN1CN2C(=O)C(C(=O)OCC)C(=O)c3sc4nc(SC)nc1c4c32 (centres undefined)
inactive: [1] 16.6 µM | [2] 19 µM | [3] 18.2 µM | [4] 17.1 µM | [5] 19.2 µM | [6] 19.7 µM

CCOC(=O)C1=C(C)N2CCCOC2(C)C(C(=O)OC)C1c1cccc([N+](=O)[O-])c1 (centres undefined)
inactive: [7] 45.7 µM

COc1cccc(N2C(Cl)C(=O)C2c2c[nH]c3ccccc23)c1 (centres undefined)
inactive: [7] > 100 µM

CCOC(=O)Cn1c(=O)c(C)cn(COCCO)c1=O
inactive: [1] > 100 µM | [2] > 100 µM | [3] > 100 µM | [4] > 100 µM | [5] > 100 µM | [6] > 100 µM
